Structures can show the parent of a compound that is named as a salt.
Target: T1, human VR1 (Homo sapiens, UniProt Q8NER1)
T1 construct: expressed in transfected cells
Experiment: FLIPR based calcium assay, capsaicin-induced response in 1321N1 cells stably expressing human VR1
Type: cell-based
Settings: antagonism of capsaicin response; pKb generated from IC50 using the Cheng-Prusoff equation
Procedure: Transfected astrocytoma 1321N1 cells, stably expressing human VR1, were seeded into FLIPR plates at 25,000cells/well (96-well plate) and cultured overnight. The cells were subsequently loaded in medium containing 4 μM Fluo-3 AM (Molecular Probes) for 2 hours, at room temperature, in the dark. The plates were then washed 4 times with Tyrode containing 1.5 mM calcium, without probenecid. The cells were pre-incubated with compound or buffer control at room temperature for 30 minutes. Capsaicin (Sigma) was then added to the cells. Compounds having antagonist activity against the human VR1 were identified by detecting differences in fluorescence when measured after capsaicin addition, compared with no compound buffer controls.

T1 sequence (Q8NER1 whole entry): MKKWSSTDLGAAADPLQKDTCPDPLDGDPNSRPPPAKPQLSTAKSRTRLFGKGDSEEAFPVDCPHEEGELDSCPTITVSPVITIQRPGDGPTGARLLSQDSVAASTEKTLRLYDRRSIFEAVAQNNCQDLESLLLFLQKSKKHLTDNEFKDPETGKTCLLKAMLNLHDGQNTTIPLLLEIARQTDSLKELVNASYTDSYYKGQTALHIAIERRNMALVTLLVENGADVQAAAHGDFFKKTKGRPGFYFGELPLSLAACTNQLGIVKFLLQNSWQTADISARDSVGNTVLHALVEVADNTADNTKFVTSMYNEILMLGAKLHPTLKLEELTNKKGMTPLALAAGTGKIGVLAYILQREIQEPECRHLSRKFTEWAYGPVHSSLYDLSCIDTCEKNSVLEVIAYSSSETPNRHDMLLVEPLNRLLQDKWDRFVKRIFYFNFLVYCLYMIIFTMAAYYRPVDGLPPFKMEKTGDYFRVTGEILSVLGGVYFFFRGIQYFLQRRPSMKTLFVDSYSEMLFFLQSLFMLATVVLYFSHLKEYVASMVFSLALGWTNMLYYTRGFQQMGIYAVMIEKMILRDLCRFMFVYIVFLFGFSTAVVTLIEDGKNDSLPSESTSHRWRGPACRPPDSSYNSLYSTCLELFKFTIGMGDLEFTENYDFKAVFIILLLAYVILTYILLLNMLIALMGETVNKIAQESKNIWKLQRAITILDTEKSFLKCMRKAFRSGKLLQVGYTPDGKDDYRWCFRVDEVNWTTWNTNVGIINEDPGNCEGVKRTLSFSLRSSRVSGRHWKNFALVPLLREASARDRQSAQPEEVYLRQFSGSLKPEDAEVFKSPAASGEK

SMILES | Kb
COc1nc(N2CCC(NC(=O)Nc3cccc4c(C)nccc34)CC2)ccc1C(F)(F)F [Example 2, 1-([6-Methoxy-5-trifluoromethylpyridinyl-2-yl]piperidin-4-yl)-3-(1-methyl-isoquinolin-5-yl)-urea hydrochloride] | < 0.1 µM
Cc1nccc2c(NC(=O)NC3CCN(c4ncc(C(F)(F)F)cc4Cl)CC3)cccc12 [Example 1, 1-([3-Chloro-5-trifluoromethylpyridinyl-2-yl]piperidin-4-yl)-3-(1-methyl-isoquinolin-5-yl)-urea hydrochloride] | < 0.1 µM
